Measurements taken from US20190216886A1, “Topical Compositions And Methods For Treating Wounds” (priority 2014, published 2019).

Assays:
S. pyogenes = experiment: in vitro zone inhibition (disk diffusion) study; format: cell-based, Streptococcus pyogenes; conditions: for Mean inhibition diameter: S. pyogenes (n = 6), 6 mm paper disks on Mueller Hinton Agar; for antimicrobial activity, in words: S. pyogenes, zone inhibition
Experimental: (§1) In vitro culture and sensitivity studies were performed on common microbes seen in acute and stubborn chronic wound cases. The particular microbes tested included streptococcus pyogenes, staphylococcus aureus, methicillin resistant staphylococcus aureus (MRSA) and, a fungus, candida albicans. Ten different strains of MRSA bacteria obtained from infected hospital patients were tested.
(§2) The different microbes were inoculated on Mueller Hinton Agar media in culture plates. […] However, genetically mutated resistant strains of staphylococcus have evolved and are now the cause of numerous infections because of their resistant nature to most antibiotics.

MRSA = experiment: in vitro zone inhibition (disk diffusion) study; format: cell-based, methicillin resistant staphylococcus aureus; conditions: for Mean inhibition diameter: MRSA (10 strains, n = 30), 6 mm paper disks on Mueller Hinton Agar; for zone of inhibition, visual result: MRSA strain number 11, FIG. 7; for antimicrobial activity, in words: MRSA, zone inhibition
Experimental: as §1, §2

S. aureus = experiment: in vitro zone inhibition (disk diffusion) study; format: cell-based, Staphylococcus aureus; conditions: for Mean inhibition diameter: S. aureus (n = 6), 6 mm paper disks on Mueller Hinton Agar; for antimicrobial activity, in words: non-resistant S. aureus, zone inhibition
Experimental: as §1, §2

C. albicans = experiment: in vitro zone inhibition (disk diffusion) study; format: cell-based, Candida albicans; conditions: for Mean inhibition diameter: C. albicans (n = 6), 6 mm paper disks on Mueller Hinton Agar; for antimicrobial activity, in words: C. albicans (fungi), zone inhibition
Experimental: as §1, §2

tinea pedis infection = experiment: treatment of a patient with chronic tinea pedis; format: in vivo, human; conditions: person, oral, after a month's treatment
Experimental: Twenty patients with a variety of chronic wound conditions that included diabetic foot ulcers, decubitus pressure ulcers, surgical wounds, toe fungus were treated for eight weeks by wound care physicians with a compounded topical pharmaceutical composition made from compendial ingredients.
Specifically, the test pharmaceutical composition for these studies was prepared by compounding: 25 parts 1% silver sulfadiazine cream: 25 parts 20% zinc oxide ointment; 15 parts triple antibiotic ointment; 25 parts 2% lidocaine viscous; 5 parts Vitamin E Oil (as 200 IU/gm final); and 5 parts Coenzyme Q10 (as 15 mg/gm final).
A case of tinea pedis was also reported in one of the patients. A person who had been suffering from chronic tinea pedis infection (athlete's foot) for over 10 months had tried numerous over-the-counter remedies with no success. They were prescribed the oral antibiotic terbinafine. […] The terbinafine was discontinued and the patient was placed on the test pharmaceutical formulation of the invention on Apr. 14, 2014. They returned for a follow-up with their physician about one week later on Apr. 22, 2014. […] The patient returned for a second follow up on Apr. 29, 2014 (FIG. 5B). The physician's report about 2 weeks after beginning treatment states: “Patient reports foot no longer itchy. Skin healing. […] Foot dry, healthy new tissue visualized”. […]

Row | SMILES | Mean inhibition diameter (S. pyogenes) | antimicrobial activity, in words (S. pyogenes) | Mean inhibition diameter (MRSA) | zone of inhibition, visual result (MRSA) | Mean inhibition diameter (S. aureus) | antimicrobial activity, in words (S. aureus) | Mean inhibition diameter (C. albicans) | antimicrobial activity, in words (MRSA) | antimicrobial activity, in words (C. albicans) | tinea pedis infection outcome (tinea pedis infection)
1 | Cc1onc(-c2ccccc2)c1C(=O)N[C@@H]1C(=O)N2[C@@H]1SC(C)(C)[C@@H]2C(=O)O [Oxacillin, oxacillin] | 30.2 mm | showed antimicrobial activity | 0.0 mm | lack of any zone inhibition | 20.3 mm | showed antimicrobial activity | 0.0 mm | – | – | –
2 | COc1cccc(OC)c1C(=O)N[C@@H]1C(=O)N2[C@@H]1SC(C)(C)[C@@H]2C(=O)O [methicillin] | – | – | – | – | – | – | – | no activity | no activity | –
3 | CN(C/C=C/C#CC(C)(C)C)Cc1cccc2ccccc12 [terbinafine] | – | – | – | – | – | – | – | – | – | no sign of reduction in the infection
4 | CN[C@H](CC(C)C)C(=O)N[C@H]1C(=O)N[C@@H](CC(N)=O)C(=O)N[C@H]2C(=O)N[C@H]3C(=O)N[C@H](C(=O)N[C@H](C(=O)O)c4cc(O)cc(O)c4-c4cc3ccc4O)[C@H](O)c3ccc(c(Cl)c3)Oc3cc2cc(c3O[C@@H]2O[C@H](CO)[C@@H](O)[C@H](O)[C@H]2O[C@H]2C[C@](C)(N)[C@H](O)[C@H](C)O2)Oc2ccc(cc2Cl)[C@H]1O [Vancomycin, vancomycin] | 22.2 mm | potent activity | 18.9 mm | clear circular area of inhibition zone | 17.3 mm | potent activity | 0.0 mm | potent activity | not effective | –
